# Experimental data taken from ChEMBL document CHEMBL1158649, “Constituents of Pachygone ovata and Pharmacological Action of its Major Leaf Alkaloid” (J Nat Prod, 1979).
# The source made the active and inactive calls. No cut-off for these calls is given here.
# Experiments:
# Mus musculus [1] = experiment: Induction of hypnosis in mouse at 100 mg/kg, ip; format: functional; conditions: route intraperitoneal
# [2] = Toxicity in Wistar albino rat assessed as mortality after 4 days; format: organism-based; conditions: in vivo, read-out: Activity
# Mus musculus [3] = species: Mus musculus; experiment: Effect on behavioral activity in mouse in presence of mephenesin; format: functional, organism-based
# Mus musculus [4] = experiment: Potentiation of hexobarbitone-induced sleeping time in mouse at 20 mg/kg, ip; format: functional; conditions: route intraperitoneal
# Rattus norvegicus [5] = experiment: Increase in rectal temperature in Wistar albino rat at 10 mg/kg, ip by telethermometer relative to control; format: functional; conditions: route intraperitoneal
# Mus musculus [6] = experiment: Potentiation of hexobarbitone-induced sleeping time in mouse at 5 mg/kg, ip; format: functional; conditions: route intraperitoneal
# [7] = Acute toxicity in ip dosed mouse; format: organism-based; conditions: in vivo
# Mus musculus [8] = experiment: Effect on central nervous system in mouse assessed as behavioral activity at 10 to 20 mg/kg, ip; format: functional, organism-based
# [9] = Potentiation of amphetamine-induced lethal activity in Wistar albino rat assessed as mortality after 4 days; format: organism-based; conditions: in vivo, read-out: Activity
# Rattus norvegicus [10] = experiment: Increase in rectal temperature in Wistar albino rat at 5 mg/kg, ip by telethermometer relative to control; format: functional; conditions: route intraperitoneal
# Mus musculus [11] = experiment: Increase in locomotor activity in mouse at 10 mg/kg, ip after 30 mins by actophotometer; format: functional, organism-based; design: dose 10 mg/kg
# Rattus norvegicus [12] = experiment: Antinociceptive activity in Wistar albino rat assessed as increase in latent period of tail flick response at 20 mg/kg, ip by tail-hot wire technique; format: functional; conditions: route intraperitoneal
# Rattus norvegicus [13] = experiment: Increase in rectal temperature in Wistar albino rat at 20 mg/kg, ip by telethermometer relative to control; format: functional; conditions: route intraperitoneal
# Rattus norvegicus [14] = experiment: Antinociceptive activity in Wistar albino rat assessed as increase in latent period of tail flick response at 10 mg/kg, ip by tail-hot wire technique; format: functional; conditions: route intraperitoneal
# Hoplobatrachus tigerinus = experiment: Induction of tetanic convulsion in frog at 40 mg/kg dosed in ventral lymph sac; format: functional, organism-based; design: dose 40 mg/kg
# Mus musculus [15] = experiment: Effect on behavioral activity in mouse assessed as convulsion-induced hind limb extension at 30 to 40 mg/kg, ip; format: functional, organism-based; conditions: Hindlimb
compound,measurement,setting,value
CN1C(=O)NC(=O)C(C)(C2=CCCCC2)C1=O (stereo unspecified) [HEXOBARBITAL],Activity,Mus musculus [1],31.3 min
CC(N)Cc1ccccc1 (stereo unspecified) [AMPHETAMINE],mortality at 96 h,[2],10%
Cc1ccccc1OCC(O)CO (stereo unspecified),Activity,Mus musculus [3],inactive
COc1ccc(C[C@H]2c3cc(O)c(OC)cc3CCN2C)cc1O [(S)-RETICULINE],Activity,Mus musculus [4],23.7 min
same,Activity,Rattus norvegicus [5],0.69 °C
same,Activity,Mus musculus [6],56.2 min
same,LD50,[7],56 mg/kg
same,Activity,Mus musculus [8],Active
same,mortality at 96 h,[9],60%
same,Activity,Rattus norvegicus [10],0.36 °C
same,Activity,Mus musculus [11],Active
same,Activity,Rattus norvegicus [12],11.9 s
same,Activity,Rattus norvegicus [13],1.1 °C
same,Activity,Rattus norvegicus [14],7.8 s
same,Activity,Hoplobatrachus tigerinus,Active
same,Activity,Mus musculus [15],Active
